Measured values: publication PMC12381025 (Scientific Reports, 2025)

What was measured:
[1] = tested on: α-glucosidase; experiment: α-Glucosidase inhibition assay; format: biochemical; conditions: versus standard inhibitor acarbose
[2] = tested on: α-amylase; experiment: α-Amylase inhibition assay; format: biochemical; conditions: versus standard inhibitor acarbose

SMILES: O=C(CCc1nc2ccccc2[nH]1)N/N=C/c1cc2ccccc2nc1SCC(=O)Nc1ccc(F)cc1 [Compound 12n, (E)-2-((3-((2-(3-(1 H-benzo[d]imidazol-2-yl)propanoyl)hydrazineylidene)methyl)quinolin-2-yl)thio)-N-(4-fluorophenyl)acetamide]
- fold more potent than acarbose against α-glucosidase [1]: 5 fold
- fold more potent than acarbose against α-amylase [2]: 23.8 fold
